Reference: the supplement of paper PMC10307832

Assays:
Experiment in all cases: relative viability (nuclei count vs DMSO), 5 days (fraction); higher = more cells survive
RERF-LC-KJ = tested on: RERF-LC-KJ
How it was run: (§1)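 Values are medians from duplicate plates. Each reflects relative viability, defined as the nuclei count of treated wells over that of vehicle wells. Lung cancer cell lines in 1536-well plates were pin-tool dosed one day after seeding with one drug alone or with a fixed anchor-drug dose plus five library-drug doses (not always all listed) in √10 steps, then fixed, stained and imaged at 4× after 5 days.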

SW 900 = tested on: SW 900
How it was run: as §1

LK-2 = tested on: LK-2
How it was run: as §1

LU99A = tested on: LU99A
How it was run: as §1

SK-LU-1 = tested on: SK-LU-1
How it was run: as §1

NCI-H2342 = tested on: NCI-H2342
How it was run: as §1

LCLC-103H = tested on: LCLC-103H
How it was run: as §1

NCI-H1975 = tested on: NCI-H1975
How it was run: as §1

HCC-78 = tested on: HCC-78
How it was run: as §1

NCI-H1666 = tested on: NCI-H1666
How it was run: as §1

LXF-289 = tested on: LXF-289
How it was run: as §1

NCI-H2126 = tested on: NCI-H2126
How it was run: as §1

EMC-BAC-2 = tested on: EMC-BAC-2
How it was run: as §1

ChaGo-K-1 = tested on: ChaGo-K-1
How it was run: as §1

EKVX = tested on: EKVX
How it was run: as §1

SW 1573 = tested on: SW 1573
How it was run: as §1

NCI-H23 = tested on: NCI-H23
How it was run: as §1

PC-14 = tested on: PC-14
How it was run: as §1

HCC-827 = tested on: HCC-827
How it was run: as §1

NCI-H322M = tested on: NCI-H322M
How it was run: as §1

EPLC-272H = tested on: EPLC-272H
How it was run: as §1

NCI-H1563 = tested on: NCI-H1563
How it was run: as §1

NCI-H2405 = tested on: NCI-H2405
How it was run: as §1

Which results are given for CCN(CC)CCCCNc1ncc2cc(-c3cc(OC)cc(OC)c3)c(NC(=O)NC(C)(C)C)nc2n1 + COc1cccc2cc(-c3nc([C@H]4CC[C@H](C(=O)O)CC4)n4ncnc(N)c34)[nH]c12 [OSI-027] (partner 0.5 µM)?
relative viability (RERF-LC-KJ; first compound 0.01 µM): 0.549; relative viability (RERF-LC-KJ; first compound 0.03162 µM): 0.678; relative viability (RERF-LC-KJ; first compound 0.1 µM): 0.536; relative viability (RERF-LC-KJ; first compound 0.3162 µM): 0.675; relative viability (RERF-LC-KJ; first compound 1 µM): 0.515; relative viability (SW 900; first compound 0.01 µM): 0.657; relative viability (SW 900; first compound 0.03162 µM): 0.592; relative viability (SW 900; first compound 0.3162 µM): 0.634; relative viability (SW 900; first compound 1 µM): 0.402; relative viability (LK-2; first compound 0.01 µM): 0.193; relative viability (LK-2; first compound 0.03162 µM): 0.192; relative viability (LK-2; first compound 0.1 µM): 0.163; relative viability (LK-2; first compound 0.3162 µM): 0.165; relative viability (LK-2; first compound 1 µM): 0.196; relative viability (LU99A; first compound 0.01 µM): 0.292; relative viability (LU99A; first compound 0.03162 µM): 0.259; relative viability (LU99A; first compound 0.1 µM): 0.309; relative viability (LU99A; first compound 0.3162 µM): 0.291; relative viability (LU99A; first compound 1 µM): 0.302; relative viability (SK-LU-1; first compound 0.01 µM): 0.412; relative viability (SK-LU-1; first compound 0.03162 µM): 0.377; relative viability (SK-LU-1; first compound 0.1 µM): 0.33; relative viability (SK-LU-1; first compound 0.3162 µM): 0.341; relative viability (SK-LU-1; first compound 1 µM): 0.219; relative viability (NCI-H2342; first compound 0.01 µM): 0.676; relative viability (NCI-H2342; first compound 0.03162 µM): 0.615; relative viability (NCI-H2342; first compound 0.1 µM): 0.622; relative viability (NCI-H2342; first compound 0.3162 µM): 0.701; relative viability (NCI-H2342; first compound 1 µM): 0.568; relative viability (LCLC-103H; first compound 0.01 µM): 0.455; relative viability (LCLC-103H; first compound 0.03162 µM): 0.482; relative viability (LCLC-103H; first compound 0.1 µM): 0.456; relative viability (LCLC-103H; first compound 0.3162 µM): 0.386; relative viability (LCLC-103H; first compound 1 µM): 0.339; relative viability (NCI-H1975; first compound 0.01 µM): 0.86; relative viability (NCI-H1975; first compound 0.03162 µM): 0.822; relative viability (NCI-H1975; first compound 0.1 µM): 0.802; relative viability (NCI-H1975; first compound 0.3162 µM): 0.949; relative viability (NCI-H1975; first compound 1 µM): 0.559; relative viability (HCC-78; first compound 0.01 µM): 0.36; relative viability (HCC-78; first compound 0.03162 µM): 0.381; relative viability (HCC-78; first compound 0.1 µM): 0.468; relative viability (HCC-78; first compound 0.3162 µM): 0.349; relative viability (HCC-78; first compound 1 µM): 0.357; relative viability (NCI-H1666; first compound 0.01 µM): 0.896; relative viability (NCI-H1666; first compound 0.03162 µM): 0.877; relative viability (NCI-H1666; first compound 0.1 µM): 0.817; relative viability (NCI-H1666; first compound 0.3162 µM): 1.08; relative viability (NCI-H1666; first compound 1 µM): 0.851; relative viability (LXF-289; first compound 0.01 µM): 0.825; relative viability (LXF-289; first compound 0.03162 µM): 0.823; relative viability (LXF-289; first compound 0.1 µM): 0.973; relative viability (LXF-289; first compound 0.3162 µM): 0.812; relative viability (LXF-289; first compound 1 µM): 0.715; relative viability (NCI-H2126; first compound 0.01 µM): 0.583; relative viability (NCI-H2126; first compound 0.03162 µM): 0.768; relative viability (NCI-H2126; first compound 0.1 µM): 0.704; relative viability (NCI-H2126; first compound 0.3162 µM): 0.756; relative viability (NCI-H2126; first compound 1 µM): 0.707; relative viability (EMC-BAC-2; first compound 0.01 µM): 0.38; relative viability (EMC-BAC-2; first compound 0.03162 µM): 0.399; relative viability (EMC-BAC-2; first compound 0.1 µM): 0.398; relative viability (EMC-BAC-2; first compound 0.3162 µM): 0.471; relative viability (EMC-BAC-2; first compound 1 µM): 0.358; relative viability (ChaGo-K-1; first compound 0.01 µM): 0.618; relative viability (ChaGo-K-1; first compound 0.03162 µM): 0.671; relative viability (ChaGo-K-1; first compound 0.1 µM): 0.619; relative viability (ChaGo-K-1; first compound 0.3162 µM): 0.559; relative viability (ChaGo-K-1; first compound 1 µM): 0.513; relative viability (EKVX; first compound 0.01 µM): 0.734; relative viability (EKVX; first compound 0.03162 µM): 0.721; relative viability (EKVX; first compound 0.1 µM): 0.711; relative viability (EKVX; first compound 0.3162 µM): 0.765; relative viability (EKVX; first compound 1 µM): 0.671; relative viability (SW 1573; first compound 0.01 µM): 0.578; relative viability (SW 1573; first compound 0.03162 µM): 0.693; relative viability (SW 1573; first compound 0.1 µM): 0.839; relative viability (SW 1573; first compound 0.3162 µM): 0.691; relative viability (SW 1573; first compound 1 µM): 0.629; relative viability (NCI-H23; first compound 0.01 µM): 0.566; relative viability (NCI-H23; first compound 0.03162 µM): 0.679; relative viability (NCI-H23; first compound 0.1 µM): 0.738; relative viability (NCI-H23; first compound 0.3162 µM): 0.731; relative viability (NCI-H23; first compound 1 µM): 0.623; relative viability (PC-14; first compound 0.01 µM): 0.838; relative viability (PC-14; first compound 0.03162 µM): 1.04; relative viability (PC-14; first compound 0.1 µM): 1.12; relative viability (PC-14; first compound 0.3162 µM): 0.974; relative viability (PC-14; first compound 1 µM): 0.91; relative viability (HCC-827; first compound 0.01 µM): 0.809; relative viability (HCC-827; first compound 0.03162 µM): 0.761; relative viability (HCC-827; first compound 0.1 µM): 0.836; relative viability (HCC-827; first compound 0.3162 µM): 0.95; relative viability (HCC-827; first compound 1 µM): 0.655; relative viability (NCI-H322M; first compound 0.01 µM): 0.481; relative viability (NCI-H322M; first compound 0.03162 µM): 0.525; relative viability (NCI-H322M; first compound 0.1 µM): 0.531; relative viability (NCI-H322M; first compound 0.3162 µM): 0.594; relative viability (NCI-H322M; first compound 1 µM): 0.552; relative viability (EPLC-272H; first compound 0.01 µM): 0.272; relative viability (EPLC-272H; first compound 0.03162 µM): 0.281; relative viability (EPLC-272H; first compound 0.1 µM): 0.234; relative viability (EPLC-272H; first compound 0.3162 µM): 0.28; relative viability (EPLC-272H; first compound 1 µM): 0.301; relative viability (NCI-H1563; first compound 0.01 µM): 0.766; relative viability (NCI-H1563; first compound 0.03162 µM): 0.723; relative viability (NCI-H1563; first compound 0.1 µM): 0.835; relative viability (NCI-H1563; first compound 0.3162 µM): 0.768; relative viability (NCI-H1563; first compound 1 µM): 0.584; relative viability (NCI-H2405; first compound 0.01 µM): 0.647; relative viability (NCI-H2405; first compound 0.03162 µM): 0.659; relative viability (NCI-H2405; first compound 0.1 µM): 0.585; relative viability (NCI-H2405; first compound 0.3162 µM): 0.602; relative viability (NCI-H2405; first compound 1 µM): 0.691
